Here are results for 33 molecules from US20090105305A1, “Therapeutic Agents - 550” (AstraZeneca AB, priority 2006, published 2009).

As a reminder, the inhibition is the drop in the measured response relative to a control, in per cent. The low end stands for a response near the control, the high end for a response far below the control. Usually IC50 stands for the midpoint of a concentration-inhibition curve.

T1 sequence (P49327 whole entry): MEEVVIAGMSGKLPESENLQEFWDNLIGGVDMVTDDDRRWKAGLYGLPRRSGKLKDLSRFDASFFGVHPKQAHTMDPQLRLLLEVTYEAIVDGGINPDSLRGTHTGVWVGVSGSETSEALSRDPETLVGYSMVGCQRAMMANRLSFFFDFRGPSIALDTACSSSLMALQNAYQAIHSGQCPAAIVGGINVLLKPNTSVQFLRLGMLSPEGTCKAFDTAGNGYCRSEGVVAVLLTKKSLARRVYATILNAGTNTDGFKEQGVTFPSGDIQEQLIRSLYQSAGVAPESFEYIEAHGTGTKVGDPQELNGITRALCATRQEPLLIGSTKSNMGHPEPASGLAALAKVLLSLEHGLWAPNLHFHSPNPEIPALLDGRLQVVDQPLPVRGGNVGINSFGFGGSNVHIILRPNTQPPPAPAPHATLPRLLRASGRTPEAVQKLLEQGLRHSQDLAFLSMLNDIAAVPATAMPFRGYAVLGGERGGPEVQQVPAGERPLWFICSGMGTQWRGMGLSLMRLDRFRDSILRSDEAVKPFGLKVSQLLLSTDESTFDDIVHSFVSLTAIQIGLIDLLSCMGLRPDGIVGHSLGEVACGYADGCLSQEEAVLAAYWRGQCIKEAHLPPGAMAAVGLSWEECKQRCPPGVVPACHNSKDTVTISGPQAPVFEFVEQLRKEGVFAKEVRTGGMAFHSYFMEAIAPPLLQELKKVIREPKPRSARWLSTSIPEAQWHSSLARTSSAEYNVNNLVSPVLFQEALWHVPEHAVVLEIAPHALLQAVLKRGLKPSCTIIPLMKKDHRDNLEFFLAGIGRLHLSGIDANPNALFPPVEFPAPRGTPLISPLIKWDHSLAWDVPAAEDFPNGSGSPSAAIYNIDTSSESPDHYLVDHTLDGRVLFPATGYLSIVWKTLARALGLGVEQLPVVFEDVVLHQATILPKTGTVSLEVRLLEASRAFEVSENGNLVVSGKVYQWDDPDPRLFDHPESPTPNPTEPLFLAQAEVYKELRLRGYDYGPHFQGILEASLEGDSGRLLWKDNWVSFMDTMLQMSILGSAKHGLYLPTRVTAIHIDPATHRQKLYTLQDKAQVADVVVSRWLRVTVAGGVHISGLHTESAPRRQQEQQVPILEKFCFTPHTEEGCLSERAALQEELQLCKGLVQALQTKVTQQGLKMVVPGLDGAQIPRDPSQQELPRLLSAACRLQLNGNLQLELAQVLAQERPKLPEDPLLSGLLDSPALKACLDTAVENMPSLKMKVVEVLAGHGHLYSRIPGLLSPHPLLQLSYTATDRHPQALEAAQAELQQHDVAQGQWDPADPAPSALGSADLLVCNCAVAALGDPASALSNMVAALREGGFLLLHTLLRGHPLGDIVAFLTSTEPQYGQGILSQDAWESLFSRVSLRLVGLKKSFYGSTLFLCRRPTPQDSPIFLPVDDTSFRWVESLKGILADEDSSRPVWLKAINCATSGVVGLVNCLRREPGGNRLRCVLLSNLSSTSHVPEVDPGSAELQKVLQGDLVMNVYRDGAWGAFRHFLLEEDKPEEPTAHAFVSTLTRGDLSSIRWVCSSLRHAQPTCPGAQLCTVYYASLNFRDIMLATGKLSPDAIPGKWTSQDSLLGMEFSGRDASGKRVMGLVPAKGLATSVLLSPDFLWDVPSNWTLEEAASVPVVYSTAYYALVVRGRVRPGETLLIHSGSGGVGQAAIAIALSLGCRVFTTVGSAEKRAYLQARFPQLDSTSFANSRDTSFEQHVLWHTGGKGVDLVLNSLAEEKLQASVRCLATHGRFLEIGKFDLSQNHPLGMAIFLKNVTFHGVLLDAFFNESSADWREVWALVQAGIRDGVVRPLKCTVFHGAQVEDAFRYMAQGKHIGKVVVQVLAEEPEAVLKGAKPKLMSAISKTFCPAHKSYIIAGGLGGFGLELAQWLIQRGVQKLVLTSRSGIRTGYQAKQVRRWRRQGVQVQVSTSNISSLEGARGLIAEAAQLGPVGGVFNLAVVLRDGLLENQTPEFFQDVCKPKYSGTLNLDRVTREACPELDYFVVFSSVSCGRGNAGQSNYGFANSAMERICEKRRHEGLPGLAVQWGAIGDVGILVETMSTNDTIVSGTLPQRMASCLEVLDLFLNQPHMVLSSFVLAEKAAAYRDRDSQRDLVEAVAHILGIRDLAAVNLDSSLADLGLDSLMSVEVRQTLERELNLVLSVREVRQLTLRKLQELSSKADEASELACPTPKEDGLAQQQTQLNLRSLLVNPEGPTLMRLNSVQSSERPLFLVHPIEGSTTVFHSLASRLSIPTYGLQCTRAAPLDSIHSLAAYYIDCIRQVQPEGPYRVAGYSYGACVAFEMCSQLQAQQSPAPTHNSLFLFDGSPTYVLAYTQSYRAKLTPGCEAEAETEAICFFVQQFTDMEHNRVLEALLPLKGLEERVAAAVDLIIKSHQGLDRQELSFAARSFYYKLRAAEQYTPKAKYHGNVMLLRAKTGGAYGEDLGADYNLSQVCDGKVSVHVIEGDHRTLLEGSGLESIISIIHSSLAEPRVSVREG

The first assay addresses T1, human Fatty Acid Synthase (Homo sapiens, UniProt P49327).
T1 construct: made in house
The assay can be described thus: Human FAS enzyme assay (decrease in NADPH fluorescence). Format: biochemical. The settings on record: % inhibition at a concentration of 100 micromolar. The essentials: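 Readout: decrease in NADPH fluorescence (340 nm ex, 460 nm em) after 60 min at RT, background-subtracted against a read taken before substrate. Substrate mix contained 500 μM malonyl-CoA and 150 μM acetyl-CoA. It was added after 15 min enzyme (0.4 μg in-house human FAS)–compound–NADPH preincubation in Tris pH 7.5 buffer; % inhibition was fitted to IC50.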
On to `Cc1ccc(C(=O)N2CCC(c3ccc(-c4nccs4)cc3)CC2)cc1NS(C)(=O)=O` [Example 170, N-[2-methyl-5-[4-[4-(1,3-thiazol-2-yl)phenyl]piperidine-1-carbonyl]phenyl]methanesulfonamide], for which the inhibition at 100 µM is 74%.

For the molecule `COCCCS(=O)(=O)Nc1cc(C(=O)N2CCC(c3ccc(C#N)cc3)CC2)ccc1C` [Example 110, N-[5-[4-(4-cyanophenyl)piperidine-1-carbonyl]-2-methyl-phenyl]-3-methoxy-propane-1-sulfonamide], testing at 100 µM gave an inhibition of 86%.

Turning to `Cc1ccc(NS(=O)(=O)Cc2ccc(S(C)(=O)=O)cc2)cc1C(=O)N1CCC(c2ccc(C#N)cc2)CC1` [Example 54, N-[3-[4-(4-cyanophenyl)piperidine-1-carbonyl]-4-methyl-phenyl]-1-(4-methylsulfonylphenyl)methanesulfonamide], the inhibition at 100 µM is 84%.

Turning to `Cc1ccc(C(=O)N2CCC(c3ccc(OCC#N)cc3)CC2)cc1NS(C)(=O)=O` [Example 181, N-[5-[4-[4-(cyanomethoxy)phenyl]piperidine-1-carbonyl]-2-methylphenyl]methanesulfonamide], the inhibition at 100 µM turned out to be 100%.

In turn, `Cc1ccc(C(=O)N2CCC(c3ccc(C#N)cc3)CC2)cc1NS(C)(=O)=O` [Example 1, N-(5-(4-(4-cyanophenyl)piperidine-1-carbonyl)-2-methylphenyl)methanesulfonamide] gave an inhibition at 100 µM of 86%.

Take `CCCS(=O)(=O)Nc1cc(C(=O)N2CCC(c3ccc(C#N)cc3)CC2)ccc1C` [Example 5, N-[5-[4-(4-cyanophenyl)piperidine-1-carbonyl]-2-methyl-phenyl]propane-1-sulfonamide]: the inhibition at 100 µM was 92%.

Regarding `Cc1ccc(C(=O)N2CCC(c3ccc(N(C)S(C)(=O)=O)cc3)CC2)cc1NS(C)(=O)=O` [Example 230, N-[2-methyl-5-[4-[4-(methyl-methylsulfonylamino)phenyl]piperidine-1-carbonyl]phenyl]methanesulfonamide], testing at 100 µM gave an inhibition of 73.2%.

`Cc1ccc(C(=O)N2CCC(c3ccc(OC(F)(F)F)cc3)CC2)cc1NS(C)(=O)=O` [Example 180, N-[2-methyl-5-[4-[4-(trifluoromethoxy)phenyl]piperidine-1-carbonyl]phenyl]methanesulfonamide]: at 100 µM the inhibition was 96%.

For the molecule `Cc1ccc(C(=O)N2CCC(c3ccc(C#N)cc3)CC2)cc1NS(=O)(=O)CC(=O)NCCO` [Example 92, 2-[[5-[4-(4-cyanophenyl)piperidine-1-carbonyl]-2-methyl-phenyl]sulfamoyl]-N-(2-hydroxyethyl)acetamide], the inhibition at 100 µM worked out at 80%.

`CCCS(=O)(=O)Nc1ccc(C)c(C(=O)N2CCC(c3ccc(C#N)cc3)CC2)c1` [Example 33, N-[3-[4-(4-cyanophenyl)piperidine-1-carbonyl]-4-methyl-phenyl]propane-1-sulfonamide] came in with an inhibition at 100 µM of 91%.

`CCc1ccc(C(=O)N2CCC(c3ccc(C#N)cc3)CC2)cc1NS(C)(=O)=O` [Example 123, N-[5-[4-(4-cyanophenyl)piperidine-1-carbonyl]-2-ethyl-phenyl]methanesulfonamide] returned an inhibition at 100 µM of 85%.

The molecule `Cc1ccc(C(=O)N2CCC(c3ccc(C#N)cc3)CC2)cc1NS(=O)(=O)CCN1C(=O)c2ccccc2C1=O` [Example 71, N-[5-[4-(4-cyanophenyl)piperidine-1-carbonyl]-2-methyl-phenyl]-2-(1,3-dioxoisoindol-2-yl)ethanesulfonamide] showed an inhibition at 100 µM of 100%.

Molecule `Cc1ccc(C(=O)N2CCC(c3ccc(CNS(=O)(=O)N(C)C)cc3)CC2)cc1NS(C)(=O)=O` [Example 242, N-[5-[4-[4-[(dimethylsulfamoylamino)methyl]phenyl]piperidine-1-carbonyl]-2-methylphenyl]methanesulfonamide] gave an inhibition at 100 µM of 95.7%.

Molecule `Cc1ccc(C(=O)N2CCC(c3ccc(C#N)cc3)CC2)cc1NS(=O)(=O)CCCN1CCOCC1` [Example 67, N-[5-[4-(4-cyanophenyl)piperidine-1-carbonyl]-2-methyl-phenyl]-3-morpholin-4-yl-propane-1-sulfonamide] returned an inhibition at 100 µM of 92%.

`Cc1ccc(C(=O)N2CCC(c3ccc(Oc4ncccn4)cc3)CC2)cc1NS(C)(=O)=O` [Example 190, N-[2-methyl-5-[4-(4-pyrimidin-2-yloxyphenyl)piperidine-1-carbonyl]phenyl]methanesulfonamide] had an inhibition at 100 µM of 88%.

Regarding `Cc1ccc(C(=O)N2CCC(c3ccc(F)cc3)CC2)cc1NS(C)(=O)=O` [Example 213, N-[5-[4-(4-fluorophenyl)piperidine-1-carbonyl]-2-methylphenyl]methanesulfonamide], the inhibition at 100 µM stood at 71%.

`Cc1ccc(C(=O)N2CCC(c3ccc(C#N)cc3)CC2)cc1NS(=O)(=O)c1ccccc1C#N` [Example 20, 2-cyano-N-[5-[4-(4-cyanophenyl)piperidine-1-carbonyl]-2-methyl-phenyl]benzenesulfonamide] had an inhibition at 100 µM of 85%.

On to `Cc1ccc(C(=O)N2CCC(c3ccc(-c4ncon4)cc3)CC2)cc1NS(C)(=O)=O` [Example 171, N-[2-methyl-5-[4-[4-(1,2,4-oxadiazol-3-yl)phenyl]piperidine-1-carbonyl]phenyl]methanesulfonamide], for which testing at 100 µM gave an inhibition of 85%.

Molecule `Cc1ccc(C(=O)N2CCC(O)(c3ccc(C#N)cc3)CC2)cc1NS(=O)(=O)Cc1ccccc1` [Example 70, N-[5-[4-(4-cyanophenyl)-4-hydroxy-piperidine-1-carbonyl]-2-methyl-phenyl]-1-phenyl-methanesulfonamide] displayed an inhibition at 100 µM of 87%.

`Cc1ccc(C(=O)N2CCC(c3ccc(S(C)(=O)=O)cc3)CC2)cc1NS(C)(=O)=O` [Example 68, N-[2-methyl-5-[4-(4-methylsulfonylphenyl)piperidine-1-carbonyl]phenyl]methanesulfonamide] displayed an inhibition at 100 µM of 74%.

For `COc1ccc(C(=O)N2CCC(c3ccc(C#N)cc3)CC2)cc1NS(=O)(=O)Cc1ccccc1` [Example 89, N-[5-[4-(4-cyanophenyl)piperidine-1-carbonyl]-2-methoxy-phenyl]-1-phenyl-methanesulfonamide], the inhibition at 100 µM is 78%.

For the molecule `Cc1ccc(Oc2ccc(C3CCN(C(=O)c4ccc(C)c(NS(C)(=O)=O)c4)CC3)cc2)nn1` [Example 229, N-[2-methyl-5-[4-[4-(6-methylpyridazin-3-yl)oxyphenyl]piperidine-1-carbonyl]phenyl]methanesulfonamide], 100 µM produced 80.2% inhibition.

For the molecule `Cc1ccc(C(=O)N2CCC(c3ccc(C#N)cc3)CC2)cc1NS(=O)(=O)c1ccc(NC(C)C)nc1` [Example 99, N-[5-[4-(4-cyanophenyl)piperidine-1-carbonyl]-2-methyl-phenyl]-6-(propan-2-ylamino)pyridine-3-sulfonamide], the inhibition at 100 µM is 92%.

`Cc1ccc(C(=O)N2CCC(c3ccc(C#N)cc3)CC2)cc1NS(=O)(=O)c1ccccc1C(N)=O` [Example 113, 2-[[5-[4-(4-cyanophenyl)piperidine-1-carbonyl]-2-methyl-phenyl]sulfamoyl]benzamide] displayed an inhibition at 100 µM of 77%.

The molecule `CCCCOc1ccc(S(=O)(=O)Nc2cc(C(=O)N3CCC(c4ccc(C#N)cc4)CC3)ccc2C)cc1` [Example 24, 4-butoxy-N-[5-[4-(4-cyanophenyl)piperidine-1-carbonyl]-2-methyl-phenyl]benzenesulfonamide] had an inhibition at 100 µM of 83%.

With `C=CCS(=O)(=O)Nc1cc(C(=O)N2CCC(c3ccc(C#N)cc3)CC2)ccc1C` [Example 146, N-(5-(4-(4-cyanophenyl)piperidine-1-carbonyl)-2-methylphenyl)prop-2-ene-1-sulfonamide], the inhibition at 100 µM was 90%.

`Cc1ccc(C(=O)N2CCC(c3ccc(-c4ccccc4)cc3)CC2)cc1NS(C)(=O)=O` [Example 175, N-[2-methyl-5-[4-(4-phenylphenyl)piperidine-1-carbonyl]phenyl]methanesulfonamide] showed an inhibition at 100 µM of 71%.

The same assay, now with this note: compounds excluded from the claims by proviso.
Consider `CS(=O)(=O)Nc1cc(C(=O)N2CCC(c3ccc(C#N)cc3)CC2)ccc1F` [N-[5-[4-(4-cyanophenyl)piperidine-1-carbonyl]-2-fluorophenyl]methanesulfonamide], for which the “IC50s in the range of about 0.001 μM to about 30 μM” value (“IC50s in the range” below) was “do not have IC50s in the range of about 0.001 μM to about 30 μM”.

For `Cc1ccc(C(=O)N2CCC(c3ccc(C#N)cc3)CC2)cc1NS(=O)(=O)C1CCN(C(=O)OCc2ccccc2)C1` (stereo not drawn) [Benzyl 3-[[5-[4-(4-cyanophenyl)piperidine-1-carbonyl]-2-methylphenyl]sulfamoyl]pyrrolidine-1-carboxylate], the “IC50s in the range” value is given as “do not have IC50s in the range of about 0.001 μM to about 30 μM”.

For `Cc1ccc(C(=O)N2CCC(O)(c3ccccc3F)CC2)cc1NS(C)(=O)=O` [N-[5-[4-(2-fluorophenyl)-4-hydroxypiperidine-1-carbonyl]-2-methylphenyl]methanesulfonamide], the “IC50s in the range” value is on record as “do not have IC50s in the range of about 0.001 μM to about 30 μM”.

For `Cc1ccc(C(=O)N2CCC(c3ccc(C#N)c(C(F)(F)F)c3)CC2)cc1NS(C)(=O)=O` [N-[5-[4-[4-cyano-3-(trifluoromethyl)phenyl]piperidine-1-carbonyl]-2-methylphenyl]methanesulfonamide], the “IC50s in the range” value is on record as “do not have IC50s in the range of about 0.001 μM to about 30 μM”.

The assay is the same for the next values; noted with them: unit inferred.
`Cc1ccc(C(=O)N2CCC(c3ccc(C#CCCO)cc3)CC2)cc1NS(C)(=O)=O` [Example 251, N-[5-[4-[4-(4-hydroxybut-1-ynyl)phenyl]piperidine-1-carbonyl]-2-methylphenyl]methanesulfonamide] came in with an IC50 of 663 nM.

Consider `Cc1ccc(C(=O)N2CCC(c3ccc(C#CCCCO)cc3)CC2)cc1NS(C)(=O)=O` [Example 250, N-[5-[4-[4-(5-hydroxypent-1-ynyl)phenyl]piperidine-1-carbonyl]-2-methylphenyl]methanesulfonamide], for which the IC50 came to 1440 nM.
